Results: US9556170B2, “Substituted-1H-benzo[d]imidazole series compounds as lysine-specific demethylase 1 (LSD1) inhibitors” (University of Utah, priority 2013, dated 2017)

Molecular target: LSD1 (Homo sapiens (Human), UniProt O60341)
Assay: LSD1 histone demethylase assay (LSD1 Inhibitor Screening Assay Kit, Cayman Chemical)
Format: biochemical
Details: H2O2/resorufin fluorescence readout, dimethyl K4 H3 peptide substrate
Experimental: Recombinant (expressed in baculovirus infected BTI insect cells) monoamine oxidase A and monoamine oxidase B (Catalog No. M7316 and M7441, respectively) were purchased from Sigma-Aldrich Co. LLC. (St. Louis, Mo.). MAO-Glo™ Assay Kit was purchased from Promega Corporation (Madison, Wis.). ATPlite™ Luminescence Assay System (e.g. Catalog No. V1401) was purchased from PerkinElmer Inc. (Waltham, Mass.).
IC50 values are determined using GraphPad Prism 5 software. The data were entered as an X-Y plot into the software as percent inhibition for each concentration of the drug. The concentration values of the drug were log transformed and the nonlinear regression was carried out using the “sigmoidal dose-response (variable slope)” option within the GraphPad software to model the data and calculate IC50 values.

SMILES	IC50
CN1CCN(S(=O)(=O)c2ccc3[nH]c(Nc4cc(Cl)ccc4O)nc3c2)CC1 [Compound 2, 4-chloro-2-((5-((4-methylpiperazin-1-yl)sulfonyl)-1H-benzo[d]imidazol-2-yl)amino)phenol]	0.273 µM
O=S(=O)(c1ccc2[nH]c(Nc3cc(Cl)ccc3O)nc2c1)N1CCNCC1 [Compound 3]	0.081 µM
